Results as given in patent publication US10947242B2, “[1,2,4]triazolo[1,5and#8208;A]pyrimidine compounds as PDE2 inhibitors” (Janssen Pharmaceutica NV, priority 2016, dated 2021).
“And” between values parts separate entries of the source, which are not always exact repeats. Equal entries are not always repeated. Where two headings read alike, the source gives them in different places.

What was measured:
[1] = biological target: T1, Human recombinant PDE2A (hPDE2A) (Homo sapiens, UniProt O00408); assay: In vitro assay PDE2A (SPA, 3H-cGMP hydrolysis); assay type: biochemical; settings: for Emax: read-out: hPDE2A Emax
T1 construct: His tag (inferred from metal chelate purification); made in house; host or cells: Sf9 insect cells (baculovirus)

PDE2A = biological target: T2, PDE2A (Rattus norvegicus, UniProt Q01062); assay: PDE2 occupancy by test compounds, ex-vivo autoradiography with [3H]B-17a; assay type: in vivo, Male Wistar rats; settings: for receptor occupancy at 10 mg/kg: percentage receptor occupancy, ex-vivo autoradiography, striatum; for ED50: drug dose producing 50% receptor occupancy, read-out: PDE Occupancy ED50
T2 construct: Twenty μm-thick striatal sections were cut; from tissue; host or cells: rat brain, striatal sections
T2 sequence (Q01062 1-928): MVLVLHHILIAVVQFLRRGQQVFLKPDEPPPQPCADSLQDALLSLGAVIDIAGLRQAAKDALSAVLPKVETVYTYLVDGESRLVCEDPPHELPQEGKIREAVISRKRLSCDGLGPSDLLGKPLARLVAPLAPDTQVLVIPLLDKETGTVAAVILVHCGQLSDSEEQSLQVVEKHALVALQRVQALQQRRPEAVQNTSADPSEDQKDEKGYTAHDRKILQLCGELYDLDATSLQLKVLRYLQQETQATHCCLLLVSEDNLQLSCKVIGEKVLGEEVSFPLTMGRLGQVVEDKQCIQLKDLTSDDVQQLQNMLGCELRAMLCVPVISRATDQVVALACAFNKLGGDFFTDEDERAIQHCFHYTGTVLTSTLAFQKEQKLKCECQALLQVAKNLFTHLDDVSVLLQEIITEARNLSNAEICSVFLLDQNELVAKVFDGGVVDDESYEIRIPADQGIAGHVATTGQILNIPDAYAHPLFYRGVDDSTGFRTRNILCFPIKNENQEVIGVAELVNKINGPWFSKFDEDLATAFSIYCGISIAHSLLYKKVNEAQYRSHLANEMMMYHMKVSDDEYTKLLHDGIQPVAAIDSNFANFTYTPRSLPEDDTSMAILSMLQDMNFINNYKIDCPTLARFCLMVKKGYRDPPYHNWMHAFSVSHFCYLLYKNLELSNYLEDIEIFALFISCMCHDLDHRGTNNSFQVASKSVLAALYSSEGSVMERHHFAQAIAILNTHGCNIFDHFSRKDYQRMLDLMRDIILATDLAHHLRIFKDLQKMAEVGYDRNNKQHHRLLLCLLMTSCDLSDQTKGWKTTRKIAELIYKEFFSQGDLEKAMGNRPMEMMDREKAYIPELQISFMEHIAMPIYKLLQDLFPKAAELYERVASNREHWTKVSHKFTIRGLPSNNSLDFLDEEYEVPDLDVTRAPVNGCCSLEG

[2] = biological target: T3, Human recombinant PDE10A (hPDE10A) (Homo sapiens, UniProt Q9Y233); assay: In vitro assay PDE10A, human clone (SPA, 3H-cAMP hydrolysis); assay type: biochemical; settings: human clone (h), default; for Emax: read-out: hPDE10A2 Emax; for IC50: read-out: hPDE10A2 pIC50 (converted)
T3 construct: His tag (inferred from metal chelate purification); made in house; host or cells: Sf9 insect cells (baculovirus)
Method in brief: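 Hydrolysis of 3H-cAMP (60 nM cAMP, 0.008 μCi tracer) proceeded for 60 min at room temperature, with the product detected by SPA bead scintillation counting. The enzyme was hPDE10A from baculovirus-infected Sf9 cells in Tris pH 7.8 buffer with MgCl2 and EGTA, and compounds were at 1% DMSO final. Blanks lacked enzyme.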

[3] = biological target: T4, Human recombinant PDE3A (hPDE3A) (Homo sapiens, UniProt Q14432); assay: In vitro assay PDE3A (SPA, 3H-cAMP hydrolysis); assay type: biochemical; settings: for IC50: hPDE3B pIC50, read-out: pIC50 (converted); for Emax: read-out: hPDE3B Emax, read-out: Emax;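 as to all read-outs here: the method names PDE3A and the table heading PDE3B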
T4 construct: purchased Scottish Biomedical; host or cells: Sf9 insect cells
Method in brief: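 Radiometric SPA measuring [3H]-cAMP hydrolysis (0.4 μM cAMP, 2.4 μCi/ml) over 60 min at room temperature, in Tris pH 7.8 buffer with MgCl2 and EGTA, 1% DMSO. Enzyme: recombinant human brain PDE3A expressed in Sf9 cells, used as partially purified lysate. Counts compared with enzyme-free blanks and vehicle controls.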

[4] = human recombinant PDE2A, 10 μM cGMP substrate, read-out: hPDE2A pIC50 (converted)
[5] = read-out: hPDE2A pIC50 (converted)

T1 sequence (O00408 whole entry): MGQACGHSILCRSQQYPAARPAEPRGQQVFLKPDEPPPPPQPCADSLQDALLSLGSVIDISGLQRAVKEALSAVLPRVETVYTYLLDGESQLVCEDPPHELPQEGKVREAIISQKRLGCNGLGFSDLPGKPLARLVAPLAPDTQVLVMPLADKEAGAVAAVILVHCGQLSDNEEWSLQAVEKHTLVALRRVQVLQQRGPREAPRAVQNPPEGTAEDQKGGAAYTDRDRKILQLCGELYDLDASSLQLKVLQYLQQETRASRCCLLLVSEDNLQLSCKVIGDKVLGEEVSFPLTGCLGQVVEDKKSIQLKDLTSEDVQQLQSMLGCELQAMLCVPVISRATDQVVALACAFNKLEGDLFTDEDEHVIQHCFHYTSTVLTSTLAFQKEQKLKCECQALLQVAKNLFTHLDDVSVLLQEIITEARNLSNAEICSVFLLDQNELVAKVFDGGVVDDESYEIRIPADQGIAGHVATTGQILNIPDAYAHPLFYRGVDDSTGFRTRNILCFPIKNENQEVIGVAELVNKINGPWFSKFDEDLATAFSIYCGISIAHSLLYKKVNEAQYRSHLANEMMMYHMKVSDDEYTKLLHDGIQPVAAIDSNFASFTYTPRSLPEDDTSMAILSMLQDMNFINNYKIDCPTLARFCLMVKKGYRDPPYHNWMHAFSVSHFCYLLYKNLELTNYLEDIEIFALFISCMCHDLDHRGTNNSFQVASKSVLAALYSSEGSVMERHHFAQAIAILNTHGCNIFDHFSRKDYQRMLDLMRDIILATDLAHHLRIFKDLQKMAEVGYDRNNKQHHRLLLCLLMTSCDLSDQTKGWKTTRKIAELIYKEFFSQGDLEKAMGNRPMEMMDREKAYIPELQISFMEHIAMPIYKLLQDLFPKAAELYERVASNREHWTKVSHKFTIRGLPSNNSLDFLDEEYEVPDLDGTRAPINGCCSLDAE
T3 sequence (Q9Y233 267-1055): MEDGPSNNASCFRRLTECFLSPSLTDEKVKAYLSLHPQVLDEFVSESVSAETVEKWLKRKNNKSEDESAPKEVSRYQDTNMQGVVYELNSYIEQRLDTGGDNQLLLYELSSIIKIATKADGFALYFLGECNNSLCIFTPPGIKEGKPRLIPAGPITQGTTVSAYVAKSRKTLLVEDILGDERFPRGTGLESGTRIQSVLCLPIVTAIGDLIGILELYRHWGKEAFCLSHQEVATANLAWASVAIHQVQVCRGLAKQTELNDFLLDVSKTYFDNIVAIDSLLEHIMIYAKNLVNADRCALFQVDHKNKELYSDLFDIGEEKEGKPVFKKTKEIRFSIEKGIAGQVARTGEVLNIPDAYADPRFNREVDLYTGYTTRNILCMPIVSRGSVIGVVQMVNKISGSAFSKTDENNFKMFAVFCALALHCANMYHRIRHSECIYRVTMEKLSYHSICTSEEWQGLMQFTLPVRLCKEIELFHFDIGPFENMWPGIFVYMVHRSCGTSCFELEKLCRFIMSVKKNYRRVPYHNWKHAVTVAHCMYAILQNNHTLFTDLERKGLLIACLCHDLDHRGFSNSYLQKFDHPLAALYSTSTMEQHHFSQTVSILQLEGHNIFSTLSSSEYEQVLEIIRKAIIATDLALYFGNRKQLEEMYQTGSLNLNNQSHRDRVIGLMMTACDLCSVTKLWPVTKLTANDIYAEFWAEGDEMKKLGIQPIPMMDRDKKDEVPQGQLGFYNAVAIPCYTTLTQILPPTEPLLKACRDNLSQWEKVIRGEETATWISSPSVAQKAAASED
T4 sequence (Q14432 whole entry): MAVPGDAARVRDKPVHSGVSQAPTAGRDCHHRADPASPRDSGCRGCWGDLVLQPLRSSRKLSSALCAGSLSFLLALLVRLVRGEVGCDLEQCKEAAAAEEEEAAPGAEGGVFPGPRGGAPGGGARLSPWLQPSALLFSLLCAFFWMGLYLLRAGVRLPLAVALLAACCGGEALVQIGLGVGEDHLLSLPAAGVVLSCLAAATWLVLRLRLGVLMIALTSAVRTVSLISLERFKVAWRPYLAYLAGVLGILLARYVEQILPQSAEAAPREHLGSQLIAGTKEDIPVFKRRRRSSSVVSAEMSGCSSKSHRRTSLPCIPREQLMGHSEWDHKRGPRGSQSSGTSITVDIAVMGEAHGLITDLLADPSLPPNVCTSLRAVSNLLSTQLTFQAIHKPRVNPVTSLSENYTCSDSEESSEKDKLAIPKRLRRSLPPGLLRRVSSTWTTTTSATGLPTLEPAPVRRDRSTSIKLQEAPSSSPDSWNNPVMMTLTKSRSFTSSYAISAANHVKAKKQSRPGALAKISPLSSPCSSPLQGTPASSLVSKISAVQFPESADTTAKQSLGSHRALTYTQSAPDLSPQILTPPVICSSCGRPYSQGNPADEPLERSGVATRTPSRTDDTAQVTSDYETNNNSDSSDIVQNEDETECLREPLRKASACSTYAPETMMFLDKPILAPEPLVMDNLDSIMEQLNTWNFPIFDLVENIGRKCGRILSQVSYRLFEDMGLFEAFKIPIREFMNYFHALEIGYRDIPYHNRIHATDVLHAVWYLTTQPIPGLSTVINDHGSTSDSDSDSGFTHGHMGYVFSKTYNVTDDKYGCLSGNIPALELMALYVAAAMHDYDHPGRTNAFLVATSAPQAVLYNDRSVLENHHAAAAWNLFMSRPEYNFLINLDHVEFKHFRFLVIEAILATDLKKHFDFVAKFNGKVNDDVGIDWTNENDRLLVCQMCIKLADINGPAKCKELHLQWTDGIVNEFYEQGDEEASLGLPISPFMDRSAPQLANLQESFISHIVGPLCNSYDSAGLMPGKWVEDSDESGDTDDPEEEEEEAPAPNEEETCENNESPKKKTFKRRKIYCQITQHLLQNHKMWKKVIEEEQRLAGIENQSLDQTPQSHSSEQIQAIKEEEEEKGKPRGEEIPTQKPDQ

Row | IC50 [1, 4] | Emax ([1]; human recombinant PDE2A) [%] | Emax [1] [%] | IC50 [1, 5] [nM] | receptor occupancy at 10 mg/kg (PDE2A; po, route PO (oral)) [%] | melting point [°C] | Emax [2] [%] | IC50 [2] | IC50 [3] [nM] | Emax [3] [%] | ED50 (PDE2A; route PO (oral)) [mg/kg] | receptor occupancy at 10 mg/kg (PDE2A; sc, route SC (subcutaneous)) [%] | hPDE10A2 Emax [2] | SMILES | IC50 ([1]; hPDE2A pIC50) [nM] | IC50 ([1]; hPDE2A pIC50, human recombinant PDE2A, 10 μM cGMP substrate) [nM]
1 | 0.407 nM | 102 | 102 | 0.407 | 0 | 209.73 | 100 | 45.7 nM | 380 | 95 |  |  |  | C[C@@H]1CCN(C(=O)c2cc3ccccc3o2)C[C@H]1c1cc(C(F)F)nc2ncnn12 [Compound 69] |  | 
2 | 1.02 nM | 100 | 100 | 1.02 | 0 | 177.6 | 92 | 105 nM | > 1000 | 46 |  |  |  | C[C@@H]1CCN(C(=O)c2ccc(Cl)c(C3CC3)c2)C[C@H]1c1cc(C(F)F)nc2ncnn12 [Compound 72] |  | 
3 | 0.457 nM | 101 | 101 | 0.457 | 54 | 177.37 | 98 | 83.2 nM | 676 | 96 | 5.67 |  |  | COc1c(C)cc(C(=O)N2CC[C@@H](C)[C@H](c3cc(C(F)F)nc4ncnn34)C2)cc1C [Compound 77] |  | 
4 | 0.398 nM | 101 | 101 | 0.457 | 85 | 201.12 | 99 | 36.3 nM and 39.8 nM | 2570 | 84 | 7.8 |  |  | Cc1cc(C(=O)N2CC[C@@H](C)[C@H](c3cc(C(F)F)nc4ncnn34)C2)cc(C2CC2)n1 [Compound 93] |  | 
5 | 0.891 nM | 100 | 100 | 0.891 | 0 | 273.02 | 99 | 21.4 nM | 389 | 98 |  |  |  | C[C@@H]1CCN(C(=O)c2ccc3cc[nH]c3c2)C[C@H]1c1cc(C(F)F)nc2ncnn12 [Compound 106] |  | 
6 | 0.912 nM | 100 | 100 | 0.912 | 65 | 151.39 | 99 | 52.5 nM | 2690 | 80 | 4.8 |  |  | COc1cc(C(=O)N2CC[C@@H](C)[C@H](c3cc(C(F)F)nc4ncnn34)C2)cc(Cl)n1 [Compound 108] |  | 
7 | 1.15 nM and 1.12 nM | 100 | 101 | 1.12 |  | 192.09 | 99 | 9.77 nM and 79.4 nM | 2190 | 82 |  | 3 | 98 | C[C@@H]1CCN(C(=O)c2ccc3ocnc3c2)C[C@H]1c1cc(C(F)F)nc2ncnn12 [Compound 116] |  | 
8 | 1.74 nM | 100 | 100 | 1.74 | 12 | 173.99 | 96 | 200 nM | 708 | 95 |  |  |  | C[C@@H]1CCN(C(=O)c2ccnc(C3CC3)c2F)C[C@H]1c1cc(C(F)F)nc2ncnn12 [Compound 120] |  | 
9 | 1.86 nM | 100 | 100 | 1.86 | 0 | 160.2 | 100 | 74.1 nM | 1820 | 86 |  |  |  | COc1cc(C(=O)N2CC[C@@H](C)[C@H](c3cc(C(F)F)nc4ncnn34)C2)cc(C(C)C)n1 [Compound 122] |  | 

Row | SMILES | IC50 [1, 4] | Emax ([1]; human recombinant PDE2A) [%] | Emax [1] [%] | IC50 [1, 5] [nM] | receptor occupancy at 10 mg/kg (PDE2A; po, route PO (oral)) [%] | melting point [°C] | Emax [2] [%] | IC50 [2] | IC50 [3] [nM] | Emax [3] [%] | ED50 (PDE2A; route PO (oral)) [mg/kg] | receptor occupancy at 10 mg/kg (PDE2A; sc, route SC (subcutaneous)) [%] | hPDE10A2 Emax [2] | IC50 ([1]; hPDE2A pIC50) [nM] | IC50 ([1]; hPDE2A pIC50, human recombinant PDE2A, 10 μM cGMP substrate) [nM]
10 | Cc1cc(Cl)cc(C(=O)N2CC[C@@H](C)[C@H](c3cc(C(F)F)nc4ncnn34)C2)c1 [Compound 102] |  |  | 100 |  | -4 | 215.44 | 95 | 26.3 nM | > 1000 | 44 |  |  |  | 0.676 | 0.676
